One may read the vapor or sublimation pressure as the equilibrium pressure above the liquid or solid.

The conditions of this series: Liquid, Ebulliometric method (Recirculating still).

Numbers after ± are expanded uncertainties.

`CCCC(=O)O` [butanoic acid]: the “vapor or sublimation pressure” value was 9.38 ± 0.13 kPa (373.1 K) and 45.85 ± 0.23 kPa (413.15 K).

For the compound `C=CC` [propene], the “vapor or sublimation pressure” value by setting is: (253.05 K) 307.2 ± 2.2 kPa; (293.15 K) 1015.9 ± 4.4 kPa.

Take `CCC(=O)O` [propanoic acid]: the “vapor or sublimation pressure” value runs as follows: (373.1 K) 23.38 ± 0.23 kPa; (413.15 K) 96.29 ± 0.45 kPa.

As to `Oc1ccccc1` [phenol], the “vapor or sublimation pressure” value runs as follows: (373.1 K) 5.529 ± 0.11 kPa; (423.15 K) 39.18 ± 0.2 kPa.

On to `CC(C=O)c1ccccc1` (stereo unspecified) [2-phenylpropanal], for which the “vapor or sublimation pressure” value worked out at 3.056 ± 0.084 kPa (373.1 K) and 20.97 ± 0.14 kPa (423.15 K).

Turning to `COC` [dimethyl ether], the “vapor or sublimation pressure” value runs as follows: (253.05 K) 125 ± 1.1 kPa; (293.15 K) 508.1 ± 2.2 kPa.

Take `COCC(C)O` (stereo unspecified) [1-methoxy-2-propanol]: the “vapor or sublimation pressure” value is, setting by setting: (313.15 K) 3.614 ± 0.093 kPa; (353.15 K) 24.18 ± 0.15 kPa.

With `CC[N+](=O)[O-]` [nitroethane], the “vapor or sublimation pressure” value was found to be 6.097 ± 0.11 kPa (313.15 K) and 33.11 ± 0.18 kPa (353.15 K).

The record behind these values is the NIST ThermoML archive (doi:10.1021/je050327l).
